Assay results reported in patent publication US20120100568A1, “SERUM-FREE MEDIUM FOR INDUCING PLURIPOTENT STEM CELLS QUICKLY WITH HIGH EFFICIENCY AND METHOD USING THEREOF” (GUANGZHOU INSTITUTES OF BIOMEDICINE AND HEALTH, CHINESE …, priority 2009, published 2012).

Columns and labels:
[1] = tested on: MEF cells; assay: Screening compounds in the iPS process in iPS-SF1 medium (relative GFP efficiency by FACS); format: cell-based, mouse; conditions: iPS-SF1, four factors, day 7; for effect on the efficiency of iPS reprogramming (relative GFP efficiency): PD0325901 1 μM, CHIR99021 3 μM, SU5402 2 μM; for enhancement of the efficiency of iPS reprogramming (relative GFP efficiency): TSA 20 nM, VPA 1 mM
Description: The main method for quantifying reprogramming efficiency is FACS analysis for Oct4-GFP positive cells. Based on the results of the timing process, the infected MEF cells were digested with trypsin at days 7 and 9 after infection and then analyzed through FACSCalibur. GFP positive cells received the gates of control signals from PE pathway, and 15,000 events were recorded as a minimum. Cells infected with pMXs-FLAG were used as negative control. In order to verify the efficiency as analyzed by FACS, GFP positive colonies were counted directly under a fluorescence microscope at day 14 after infection.
20,000 MEF cells were plated in each well of a twelve-well plate. The medium was iPS-SF1. Then, the cells were infected with viruses as described above in order to be transfected with the four factors. The compounds as shown in FIG. 6 were added into the medium at the following concentrations respectively: PD0325901 (1 μM), CHIR99021 (3 μM), SU5402 (2 μM, EMDbiosciences), Y-27632 (10 μM), vitamin E (25 μM, Sigma), vitamin A (1 μM, Sigma), A83-01 (0.5 μM, EMD), SB203580 (2 μM), Dorspmorphin (3 μM, Sigma), PFF-α (10 μM), TSA (20 nM, Sigma), VPA (1 mM, EMD), JAK inhibitor (0.3 μM, EMD), 5aza-DC (1 μM, Sigma), BIX01294 (1 μM), Bayk8644 (2 μM, EMD).
At day 7 after infection, cells were collected for FACS analysis as described above, and the relative GFP efficiency was measured. […] However, under conditions using the medium of the present invention, the compounds that had been previously reported as favorable to self-renewal of mouse embryonic stem cells, such as PD0325901, CHIR99021, and SU5402 reduced the efficiency of iPS reprogramming.

[2] = tested on: MEF cells; assay: Effects of medium components, growth factors and serum on iPS reprogramming efficiency (Oct4-GFP FACS); format: cell-based, mouse; conditions: for effect on the induction of the iPS reprogramming process: added to iPS-SF1 without bFGF, four factors, Oct4-GFP at day 7
Description: The main method for quantifying reprogramming efficiency is FACS analysis for Oct4-GFP positive cells. Based on the results of the timing process, the infected MEF cells were digested with trypsin at days 7 and 9 after infection and then analyzed through FACSCalibur. GFP positive cells received the gates of control signals from PE pathway, and 15,000 events were recorded as a minimum. Cells infected with pMXs-FLAG were used as negative control. In order to verify the efficiency as analyzed by FACS, GFP positive colonies were counted directly under a fluorescence microscope at day 14 after infection. LIF, N2, and bFGF in iPS-SF1 medium as listed in Table 1 were deleted respectively, or N2 and bFGF were added into DMEM+10% KOSR (i.e., containing no growth factor but containing NEAA, L-Glutamine or other ingredients at the same time, called as bKSR hereinafter) medium at concentrations equivalent to that of iPS-SF1 respectively, in order to detect the effects of LIF, N2, bFGF on the iPS reprogramming efficiency of MEF cells transfected with the four factors. […] In order to verify whether other tyrosine kinases and estrogens can play a role in inducing reprogramming of iPS cells in the medium of the present invention, after MEF cells were infected with the four-factor viruses, the following media were used instead, wherein the blank control was iPS-SF1 without bFGF, the experimental group was the blank medium (i.e., iPS-SF1 without bFGF) supplemented with various receptor tyrosine kinases (including basic fibroblast growth factor bFGF, epidermal growth factor EGF, vascular endothelial growth factor VEGF, insulin-like growth factor 2 IGF2, and estradiol), and a serum medium (FBS) was used as the negative control of this experiment.

Row | Compound | effect on the efficiency of iPS reprogramming (relative GFP efficiency) [1] | effect on the induction of the iPS reprogramming process [2] | further results
1 | Cc1c[nH]c(-c2cnc(NCCNc3ccc(C#N)cn3)nc2-c2ccc(Cl)cc2Cl)n1 [CHIR99021] | reduced | – | –
2 | O=C(NOC[C@H](O)CO)c1ccc(F)c(F)c1Nc1ccc(I)cc1F [PD0325901] | reduced | – | –
3 | Cc1c[nH]c(/C=C2\C(=O)Nc3ccccc32)c1CCC(=O)O [SU5402] | reduced | – | –
4 | CC(/C=C/C(=O)NO)=C\[C@@H](C)C(=O)c1ccc(N(C)C)cc1 [TSA] | – | – | enhancement of the efficiency of iPS reprogramming (relative GFP efficiency) [1]: 100%
5 | CCCC(CCC)C(=O)O [VPA] | – | – | enhancement of the efficiency of iPS reprogramming (relative GFP efficiency) [1]: 100%
6 | C[C@]12CC[C@@H]3c4ccc(O)cc4CC[C@H]3[C@@H]1CC[C@@H]2O [estrogen, estradiol] | – | comparable effects | –
7 | basic fibroblast growth factor [bFGF] | – | – | effects on iPS reprogramming efficiency ([2]; component added to bKSR or deleted from iPS-SF1, four factors, day 7): even higher than those of LIF
8 | epidermal growth factor (NSDSECPLSHDGYCLHDGVCMYIEALDKYACNCVVGYIGERCQYRDLKWWELR; Epidermal growth factor; UniProt P01133 971-1023, looked up) [EGF] | – | comparable effects | –
9 | insulin-like growth factor 2 [IGF2] | – | comparable effects | –
10 | vascular endothelial growth factor [VEGF] | – | comparable effects | –
